According to patent US12257246B2, “Composition of 2,4,6-trifluoro-n-[6-(1-methyl-piperidin-4-carbonyl)-pyridin-2-yl[-benzamide” (CoLucid Pharmaceuticals, Inc., priority 2009, dated 2025):

How the values were obtained:
[1] = tested on: neuronal protein extravasation; assay: Protein extravasation assay (trigeminal ganglion stimulation); type: in vivo, rats or guinea pigs; details: intravenous
Experimental: Harlan Sprague-Dawley rats (225-325 g) or guinea pigs from Charles River Laboratories (225-325 g) were anesthetized with sodium pentobarbital intraperitoneally (65 mg/kg or 45 mg/kg respectively) and placed in a stereotaxic frame (David Kopf Instruments) with the incisor bar set at −3.5 mm for rats or −4.0 mm for guinea pigs. Following a midline sagital scalp incision, two pairs of bilateral holes were drilled through the skull (6 mm posterially, 2.0 and 4.0 mm laterally in rats; 4 mm posteriorly and 3.2 and 5.2 mm laterally in guinea pigs, all coordinates referenced to bregma). Pairs of stainless steel stimulating electrodes, insulated except at the ends (Rhodes Medical Systems, Inc.), were lowered through the holes in both hemispheres to a depth of 9 mm (rats) or 10.5 mm (guinea pigs) from dura. […]
A fluorescence microscope (Zeiss) equipped with a grating monchromator and a spectrophotometer was used to quantify the amount of Evans Blue dye in each sample. An excitation wavelength of approximately 535 nm was utilized and the emission intensity at 600 nm was determined. […] This facilitated the computer-controlled movement of the stage with fluorescence measurements at 25 points (500 μm steps) on each dural sample. The mean and standard deviation of the measurements were determined by the computer. […]

[2] = tested on: other 5-HT1 receptor subtypes (5-HT1A, 5-HT1B, 5-HT1D, 5-HT1E); details: cited from earlier work

Structure (SMILES): CN1CCC(C(=O)c2cccc(NC(=O)c3c(F)cc(F)cc3F)n2)CC1 [Compound I, 2,4,6-trifluoro-N-[6-(1-methyl-piperidin-4-ylcarbonyl)-pyridin-2-yl]-benzamide]
- inhibition of neuronal protein extravasation [1]: significantly inhibit neuronal protein extravasation
- affinity higher for 5-HT1F receptors than for other 5-HT1 receptor subtypes [2]: more than 450 fold
- solubility (Solubility (statement)): high solubility
